In patent US20260256792A1, “TREATMENT OF CHRONIC SPONTANEOUS URTICARIA BY ADMINISTERING (R)-2-[3-[4-AMINO-3-(2-FLUORO-4-PHENOXY-PHENYL)PYRAZOLO[3,4-D]PYRIMIDIN-1-YL]PIPERIDINE-1-CARBONYL]-4-METHYL-4-[4-(OXETAN-3-YL)PIPERAZIN-1-YL]PENT-2-ENENITRILE” (priority 2023, published 2026):

System: moderate-to-severe chronic spontaneous urticaria (CSU)
Experiment: Phase 2 CSU study: Patient Global Impression of Severity (PGIS)
Format: in vivo, human
Settings: for PGIS Change from baseline LS Mean (SE) / PGIS % Change difference for rilzabrutinib vs. placebo LS Mean (95% CI) / PGIS % Change from baseline LS Mean (SE) / PGIS Change difference for rilzabrutinib vs. placebo LS Mean (95% CI): omalizumab-naïve, ANCOVA; for PGIS Change from baseline Mean (SD) / PGIS Change from baseline Median / PGIS Median / PGIS Percent change from baseline Mean (SD) / PGIS Percent change from baseline Median / PGIS category Mild, patients / PGIS category Moderate, patients / PGIS category None, patients / PGIS category Severe, patients: omalizumab-naïve population
Excerpt: The study comprises a 12 week, randomized, double-blind, placebo-controlled, multi-center, dose-ranging efficacy and safety phase, followed by a 40 week open label extension (OLE) phase (see FIG. 1).
The study consists of three phases and an optional OLE phase.
The PGIS is a 1-item measure that asks participants to provide a self-assessment of their overall CSU severity for the past week on a 4 point scale. Response choices are: “None”, “Mild”, “Moderate” and “Severe”. The PGIC is a 1-item measure that asks the participant to provide a self-assessment of overall change in their CSU since the participant started taking the study medication on a 7-point scale. The response options range from “Very Much Better” to “Very Much Worse.” Patients were to complete questionnaires for the 2 items during their site visit.

`CC(C)(C=C(C#N)C(=O)N1CCC[C@@H](n2nc(-c3ccc(Oc4ccccc4)cc3F)c3c(N)ncnc32)C1)N1CCN(C2COC2)CC1` [rilzabrutinib, (R)-2-[3-[4-amino-3-(2-fluoro-4-phenoxy-phenyl)pyrazolo[3,4-d]pyrimidin-1-yl]piperidine-1-carbonyl]-4-methyl-4-[4-(oxetan-3-yl)piperazin-1-yl]pent-2-enenitrile] was tested, and the “PGIS Change from baseline LS Mean (SE)” value (Week 4, 400 mg TID) was −0.96 (0.13), the “PGIS Change from baseline Mean (SD)” value (Week 8, 400 mg BID) was −1.00 and the “PGIS Change from baseline Median” value (Week 8, 400 mg BID) was −1.00. The “PGIS Median” value (Week 8, 400 mg BID) was 1.00, the “PGIS Percent change from baseline Mean (SD)” value (shortened to “PGIS Percent change … (SD)”) (Week 8, 400 mg BID) was −44.95% and the “PGIS Percent change from baseline Median” value (Week 8, 400 mg BID) was −50.00%. The “PGIS category Mild, patients” value (Week 8, 400 mg BID) was 13 (39.4), the “PGIS category Moderate, patients” value (Week 8, 400 mg BID) was 7 (21.2) and the “PGIS category None, patients” value (Week 8, 400 mg BID) was 9 (27.3). The “PGIS category Severe, patients” value (Week 8, 400 mg BID) was 4 (12.1), the “PGIS % Change difference for rilzabrutinib vs. placebo LS Mean (95% CI)” value (“PGIS % Change difference … (95% CI)” below) (Week 8, 400 mg BID) was −12.18 (−30.63, 6.27) % and the “PGIS % Change from baseline LS Mean (SE)” value (Week 8, 400 mg BID) was −46.44 (6.74) %. For the same molecule, the “PGIS Change difference for rilzabrutinib vs. placebo LS Mean (95% CI)” value (“PGIS Change difference … (95% CI)” below) (Week 8, 400 mg BID) was −0.25 (−0.67, 0.16), the “PGIS Change from baseline Mean (SD)” value (Week 8, 400 mg QPM) was 0.67 and the “PGIS Change from baseline Median” value (Week 8, 400 mg QPM) was −1.00. The “PGIS Median” value (Week 8, 400 mg QPM) was 2.00, the “PGIS Percent change … (SD)” value (Week 8, 400 mg QPM) was −25.25% and the “PGIS Percent change from baseline Median” value (Week 8, 400 mg QPM) was −33.33%. For the same molecule, the “PGIS category Mild, patients” value (Week 8, 400 mg QPM) was 10 (30.3), the “PGIS category Moderate, patients” value (Week 8, 400 mg QPM) was 14 (42.4) and the “PGIS category None, patients” value (Week 8, 400 mg QPM) was 1 (3.0). For the same molecule, the “PGIS category Severe, patients” value (Week 8, 400 mg QPM) was 8 (24.2), the “PGIS % Change difference … (95% CI)” value (Week 8, 400 mg QPM) was 9.27 (−9.09, 27.62) % and the “PGIS % Change from baseline LS Mean (SE)” value (Week 8, 400 mg QPM) was −24.99 (6.69) %. For the same molecule, the “PGIS Change difference … (95% CI)” value (Week 8, 400 mg QPM) was 0.24 (−0.17, 0.65), the “PGIS Change from baseline LS Mean (SE)” value (Week 8, 400 mg QPM) was −0.61 (0.15) and the “PGIS Change from baseline Mean (SD)” value (Week 8, 400 mg TID) was −1.13. For the same molecule, the “PGIS Change from baseline Median” value (Week 8, 400 mg TID) was −1.00, the “PGIS Median” value (Week 8, 400 mg TID) was 1.00 and the “PGIS Percent change … (SD)” value (Week 8, 400 mg TID) was 47.22%. The “PGIS Percent change from baseline Median” value (Week 8, 400 mg TID) was −50.00%, the “PGIS category Mild, patients” value (Week 8, 400 mg TID) was 12 (40.0) and the “PGIS category Moderate, patients” value (Week 8, 400 mg TID) was 8 (26.7). For the same molecule, the “PGIS category None, patients” value (Week 8, 400 mg TID) was 6 (20.0), the “PGIS category Severe, patients” value (Week 8, 400 mg TID) was 4 (13.3) and the “PGIS % Change difference … (95% CI)” value (Week 8, 400 mg TID) was −11.39 (−30.26, 7.48) %. The “PGIS % Change from baseline LS Mean (SE)” value (Week 8, 400 mg TID) was −45.65 (7.05) %, the “PGIS Change difference … (95% CI)” value (Week 8, 400 mg TID) was −0.17 (−0.58, 0.25) and the “PGIS Change from baseline LS Mean (SE)” value (Week 8, 400 mg TID) was −1.02 (0.15). For the same molecule, the “PGIS Change from baseline Mean (SD)” value (Week 12, 400 mg BID) was −1.03, the “PGIS Change from baseline Median” value (Week 12, 400 mg BID) was −1.00 and the “PGIS Median” value (Week 12, 400 mg BID) was 1.00. The “PGIS Percent change … (SD)” value (Week 12, 400 mg BID) was −43.55%, the “PGIS Percent change from baseline Median” value (Week 12, 400 mg BID) was −50.00% and the “PGIS category Mild, patients” value (Week 12, 400 mg BID) was 6 (19.4). For the same molecule, the “PGIS category Moderate, patients” value (Week 12, 400 mg BID) was 10 (32.3), the “PGIS category None, patients” value (Week 12, 400 mg BID) was 12 (38.7) and the “PGIS category Severe, patients” value (Week 12, 400 mg BID) was 3 (9.7). The “PGIS % Change difference … (95% CI)” value (Week 12, 400 mg BID) was −13.46 (−33.69, 6.76) %, the “PGIS % Change from baseline LS Mean (SE)” value (Week 12, 400 mg BID) was −45.76 (7.46) % and the “PGIS Change difference … (95% CI)” value (Week 12, 400 mg BID) was −0.34 (−0.77, 0.10). The “PGIS Change from baseline LS Mean (SE)” value (Week 12, 400 mg BID) was −1.14 (0.16), the “PGIS Change from baseline Mean (SD)” value (Week 12, 400 mg QPM) was −0.68 and the “PGIS Change from baseline Median” value (Week 12, 400 mg QPM) was −1.00. For the same molecule, the “PGIS Median” value (Week 12, 400 mg QPM) was 2.00, the “PGIS Percent change … (SD)” value (Week 12, 400 mg QPM) was −27.45% and the “PGIS Percent change from baseline Median” value (Week 12, 400 mg QPM) was −33.33%. The “PGIS category Mild, patients” value (Week 12, 400 mg QPM) was 10 (29.4), the “PGIS category Moderate, patients” value (Week 12, 400 mg QPM) was 15 (44.1) and the “PGIS category None, patients” value (Week 12, 400 mg QPM) was 1 (2.9). The “PGIS category Severe, patients” value (Week 12, 400 mg QPM) was 8 (23.5), the “PGIS % Change difference … (95% CI)” value (Week 12, 400 mg QPM) was 5.87 (−13.65, 25.38) % and the “PGIS % Change from baseline LS Mean (SE)” value (Week 12, 400 mg QPM) was −26.42 (7.16) %. The “PGIS Change difference … (95% CI)” value (Week 12, 400 mg QPM) was 0.21 (−0.22, 0.63), the “PGIS Change from baseline LS Mean (SE)” value (Week 12, 400 mg QPM) was −0.59 (0.15) and the “PGIS Change from baseline Mean (SD)” value (Week 12, 400 mg TID) was −1.17. For the same molecule, the “PGIS Change from baseline Median” value (Week 12, 400 mg TID) was −1.00, the “PGIS Median” value (Week 12, 400 mg TID) was 1.00 and the “PGIS Percent change … (SD)” value (Week 12, 400 mg TID) was −47.22%. For the same molecule, the “PGIS Percent change from baseline Median” value (Week 12, 400 mg TID) was −50.00%, the “PGIS category Mild, patients” value (Week 12, 400 mg TID) was 13 (43.3) and the “PGIS category Moderate, patients” value (Week 12, 400 mg TID) was 8 (26.7). The “PGIS category None, patients” value (Week 12, 400 mg TID) was 6 (20.0), the “PGIS category Severe, patients” value (Week 12, 400 mg TID) was 3 (10.0) and the “PGIS % Change difference … (95% CI)” value (Week 12, 400 mg TID) was −12.67 (−32.97, 7.63) %. The “PGIS % Change from baseline LS Mean (SE)” value (Week 12, 400 mg TID) was −44.96 (7.44) %, the “PGIS Change difference … (95% CI)” value (Week 12, 400 mg TID) was −0.24 (−0.67, 0.19) and the “PGIS Change from baseline LS Mean (SE)” value (Week 12, 400 mg TID) was −1.04 (0.16).
